Laboratory results taken from patent publication US20230312587A1, “PTERIDINONE COMPOUNDS AND USES THEREOF” (Vertex Pharmaceutical Incorporated, priority 2018, published 2023).
Like-named read-outs stand apart in the source and are kept apart here.

What was measured:
Assay type in all cases: cell-based
[1] = system: HepG2 XBP1(u)-Luc cells; test: HepG2 XBP1 reporter assay; settings: 6 h
Outline: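 Reporter cells are HepG2 stably carrying unspliced XBP1 fused to firefly luciferase, which becomes in-frame after IRE1alpha-mediated splicing. SteadyGlo luminescence was normalized to DMSO-treated cells for IC50 calculation.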

[2] = system: HepG2 parental; test: In vitro cell viability (CellTiter-Glo), HepG2 parental; settings: 96 hours
Description: HEK293 cells containing empty pCLPCx vector (HEK293 empty), HEK293 cells stably over-expression WFS1 (HEK293 WFS1), HepG2, and HepG2 cells where WFS1 was depleted via CRISPR/Cas9 (HepG2 WFS1 KO) cells were plated into 96-well black plates (Corning, product #3904) in 100 microliters of complete DMEM cell culture media [DMEM (Life Technologies, product #11960-051) media supplemented with 10% FBS (Hyclone, catalog #SH30071.03), antimycotic/antibiotic (Life Technologies, product #15240-062), and Glutamax (Life Technologies, product #35050-061)] at 1,000 (HEK293) or 5,000 (HepG2) cells per well. Cells were allowed to attach and grow overnight, after which compounds are added at various concentrations. Cell viability was assessed 96 hrs after compound addition with CellTiter-Glo reagent (Promega, catalog #G7570) according to manufacturer's protocol and measurement on a Pherastar luminescence plate reader (BMG Labtech).
To determine the effect of WFS1 depletion on compound mediated inhibition of cell viability, parental HepG2 cells and HepG2 cells where WFS1 was deleted by CRISPR/Cas9 were exposed to increasing concentrations of either Compound 136 or Compound 253 for 96 hours after which time viability was determined using Cell Titer Glo reagent (Promega). […] The IC50s for the viability of both the HepG2 parental and WFS1 knockout cells are summarized in Table 47: A<0.5 μM; 0.5 μM≤<2.0 μM; 2.0 μM≤C<10.0 μM; D≥[…].

[3] = system: Hek293 empty vector; test: In vitro cell viability (CellTiter-Glo), Hek293 empty vector
Outline: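 HEK293 cells stably transduced with empty pCLPCX retroviral vector (puromycin-selected), seeded 1,000 cells/well, treated next day with compounds at various concentrations. Viability read by CellTiter-Glo luminescence 96 hrs after compound addition; IC50 derived.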

[4] = Homo sapiens, read-out: HepG2 viability
[5] = Homo sapiens, HEK293, read-out: Hek293 empty vector viability
[6] = Hek293 empty vector, read-out: Hek293 empty vector viability

CC[C@H]1C(=O)Nc2cnc(NCc3cnn(Cc4ccc(F)cc4)c3)nc2N1C [Compound 9, (7S)-7-ethyl-2-(((1-(4-fluorobenzyl)-1H-pyrazol-4-yl)methyl)amino)-8-methyl-7,8-dihydropteridin-6(5H)-one]
IC50 ([1]; Homo sapiens): 600 to 2000 nM
IC50 [2, 4]: ≥ 10000 nM
IC50 [3, 5]: ≥ 3000 nM

Cc1nc(NCc2cn(Cc3ccc(C(F)(F)F)nc3)nc2Br)nc2c1NC(=O)[C@H](C)N2C [Compound 412, (S)-2-(((3-bromo-1-((6-(trifluoromethyl)pyridin-3-yl)methyl)-1H-pyrazol-4-yl)methyl)amino)-4,7,8-trimethyl-7,8-dihydropteridin-6(5H)-one]
IC50 ([1]; Homo sapiens): < 600 nM
IC50 [2, 4]: 2000 to 10000 nM
IC50 [3, 5]: ≥ 3000 nM

Cc1nc(N[C@H]2C[C@@H](Sc3ccc(F)cc3)C2)nc2c1N(C)C(=O)[C@H](C)N2C [Compound 305, (7S)-2-((cis-3-((4-fluorophenyl)thio)cyclobutyl)amino)-4,5,7,8-tetramethyl-7,8-dihydropteridin-6(5H)-one]
IC50 ([1]; Homo sapiens): 2000 to 10000 nM
IC50 [2, 4]: ≥ 10000 nM
IC50 [3, 5]: ≥ 3000 nM

Cc1nc(N[C@H]2C[C@@H](COc3ccc(C(F)(F)F)cn3)C2)nc2c1NC(=O)[C@H](C)N2C [Compound 356, (7S)-4,7,8-trimethyl-2-((cis-3-(((5-(trifluoromethyl)pyridin-2-yl)oxy)methyl)cyclobutyl)amino)-7,8-dihydropteridin-6(5H)-one]
IC50 ([1]; Homo sapiens): < 600 nM
IC50 [2, 4]: ≥ 10000 nM
IC50 [3, 5]: ≥ 3000 nM

Cc1nc(NCc2cnn(Cc3ccc(C(F)(F)F)nc3Cl)c2)nc2c1NC(=O)[C@H](C)N2C [Compound 418, (7S)-2-(((1-((2-chloro-6-(trifluoromethyl)pyridin-3-yl)methyl)-1H-pyrazol-4-yl)methyl)amino)-4,7,8-trimethyl-7,8-dihydropteridin-6(5H)-one]
IC50 ([1]; Homo sapiens): < 600 nM
IC50 [2, 4]: < 500 nM
IC50 [3, 5]: ≥ 3000 nM

Cc1nc(NCc2cnn(C[C@H](C)c3ccc(F)cc3)c2)nc2c1NC(=O)[C@H](C)N2C [Compound 96, (7S)-2-(((1-((R)-2-(4-fluorophenyl)propyl)-1H-pyrazol-4-yl)methyl)amino)-4,7,8-trimethyl-7,8-dihydropteridin-6(5H)-one]
IC50 ([1]; Homo sapiens): < 600 nM
IC50 [2, 4]: 2000 to 10000 nM
IC50 [3, 5]: ≥ 3000 nM

Cc1nc(NCc2cnn(Cc3ccc(C(F)(F)F)nc3C(C)O)c2)nc2c1NC(=O)[C@H](C)N2C (stereo partly drawn) [Compound 419, (7S)-2-(((1-((2-((S)-1-hydroxyethyl)-6-(trifluoromethyl)pyridin-3-yl)methyl)-1H-pyrazol-4-yl)methyl)amino)-4,7,8-trimethyl-7,8-dihydropteridin-6(5H)-one]
IC50 ([1]; Homo sapiens): 2000 to 10000 nM
IC50 [2, 4]: 2000 to 10000 nM
IC50 [3, 5]: ≥ 3000 nM

Cc1nc(N(C)Cc2cnn(Cc3ccc(C(F)(F)F)nc3)c2)nc2c1NC(=O)[C@H](C)N2C [Compound 403, (7S)-4,7,8-trimethyl-2-(methyl((1-((6-(trifluoromethyl)pyridin-3-yl)methyl)-1H-pyrazol-4-yl)methyl)amino)-7,8-dihydropteridin-6(5H)-one]
IC50 ([1]; Homo sapiens): ≥ 10000 nM
IC50 [2, 4]: ≥ 10000 nM
IC50 [3, 5]: ≥ 3000 nM

CC[C@H]1C(=O)Nc2cnc(NCc3cnn(Cc4ccc(C(F)(F)F)nc4)c3)nc2N1C [Compound 427, (7S)-7-ethyl-8-methyl-2-(((1-((6-(trifluoromethyl)pyridin-3-yl)methyl)-1H-pyrazol-4-yl)methyl)amino)-7,8-dihydropteridin-6(5H)-one]
IC50 ([1]; Homo sapiens): 600 to 2000 nM
IC50 [2, 4]: ≥ 10000 nM
IC50 [3, 5]: ≥ 3000 nM

Cc1nc(N[C@H]2C[C@H](Sc3ccc(F)cc3)C2)nc2c1N(C)C(=O)[C@H](C)N2C [Compound 307, (7S)-2-((trans-3-((4-fluorophenyl)thio)cyclobutyl)amino)-4,5,7,8-tetramethyl-7,8-dihydropteridin-6(5H)-one]
IC50 ([1]; Homo sapiens): 600 to 2000 nM
IC50 [2, 4]: 2000 to 10000 nM
IC50 [3, 5]: ≥ 3000 nM

Cc1nc(NCc2cnn(Cc3ccc(C(F)(F)F)nc3)c2)nc2c1NC(=O)[C@H](C)N2C [Compound 136, (7S)-4,7,8-trimethyl-2-(((1-((6-(trifluoromethyl)pyridin-3-yl)methyl)-111-pyrazol-4-yl)methyl)amino)-7,8-dihydropteridin-6(5H)-one]
IC50 [1]: 600 to 2000 nM
IC50 ([2]; read-out: HepG2 viability): 500 to 2000 nM
IC50 ([2]; cell viability, Cell Titer Glo, read-out: IC50): 330 nM
IC50 ([2]; cell viability, read-out: IC50 class): < 500 nM
IC50 [3, 6]: ≥ 3000 nM
IC50 ([3]; cell viability, Hek293 empty vector, read-out: IC50): > 27000 nM
IC50 ([3]; cell viability, Hek293 empty vector, read-out: IC50 class): ≥ 3000 nM

Cc1nc(NCc2cnn(Cc3ccc(F)cc3)c2)nc2c1NC(=O)C1(CC1)N2 [Compound 222, 2′-(((1-(4-fluorobenzyl)-1H-pyrazol-4-yl)methyl)amino)-4′-methyl-5′,8′-dihydro-6′H-spiro[cyclopropane-1,7′-pteridin]-6′-one]
IC50 ([1]; Homo sapiens): ≥ 10000 nM
IC50 [2, 4]: ≥ 10000 nM
IC50 [3, 5]: ≥ 3000 nM

CCOc1ccc(CCn2cc(CNc3ncc4c(n3)N(C)[C@@H](C)C(=O)N4)cn2)cc1 [Compound 121, (7S)-2-(((1-(4-ethoxyphenethyl)-1H-pyrazol-4-yl)methyl)amino)-7,8-dimethyl-7,8-dihydropteridin-6(5H)-one]
IC50 ([1]; Homo sapiens): 2000 to 10000 nM
IC50 [2, 4]: ≥ 10000 nM
IC50 [3, 5]: ≥ 3000 nM

Cc1nc(NCc2cnn(Cc3ccc(C(F)(F)F)cc3)c2)nc2c1NC(=O)[C@H](C)N2C [Compound 149, (7S)-4,7,8-trimethyl-2-(((1-(4-(trifluoromethyl)benzyl)-1H-pyrazol-4-yl)methyl)amino)-7,8-dihydropteridin-6(5H)-one]
IC50 ([1]; Homo sapiens): < 600 nM
IC50 [2, 4]: < 500 nM
IC50 [3, 5]: ≥ 3000 nM

Cc1nc(NCc2cnn(Cc3ccc(C(F)(F)F)nc3)c2)nc2c1NC(=O)C1(CCC1)N2C [Compound 398, 4′,8′-dimethyl-2′-(((1-((6-(trifluoromethyl)pyridin-3-yl)methyl)-1H-pyrazol-4-yl)methyl)amino)-5′,8′-dihydro-6′H-spiro[cyclobutane-1,7′-pteridin]-6′-one]
IC50 ([1]; Homo sapiens): 600 to 2000 nM
IC50 [2, 4]: 500 to 2000 nM
IC50 [3, 5]: ≥ 3000 nM

Cc1nc(NCc2cnn(CC(C)(O)c3ccc(F)cc3)c2)nc2c1NC(=O)[C@H](C)N2C (stereo partly drawn) [Compound 128, (7S)-2-(((1-(2-(4-fluorophenyl)-2-hydroxypropyl)-1H-pyrazol-4-yl)methyl)amino)-4,7,8-trimethyl-7,8-dihydropteridin-6(5H)-one]
IC50 ([1]; Homo sapiens): 2000 to 10000 nM
IC50 [2, 4]: 2000 to 10000 nM
IC50 [3, 5]: ≥ 3000 nM

(7S)-2-(((1-((6-fluoro-2-isopropylpyridin-3-yl)methyl)-1H-pyrazol-4-yl)methyl)(methyl)amino)-7-isopropyl-4,8-dimethyl-7,8-dihydropteridin-6(5H)-one [Compound 430]
IC50 [1]: < 600 nM
IC50 ([2]; read-out: HepG2 viability): < 500 nM
IC50 [3, 6]: ≥ 3000 nM
